Data from patent US20090118253A1, “COMPOSITIONS AND METHODS FOR TREATING DYSFUNCTIONAL UTERINE BLEEDING” (REPROS THERAPEUTICS INC., priority 2007, published 2009).

How the values were obtained:
[1] = Serum cortisol in rats; format: in vivo, rat; details: 10 mg/kg, 21 days of chronic dosing
Experimental: These higher levels were in the range of 3-4 ug/dl (30-40 ng/ml).

[2] = molecular target: T1, glucocorticoid receptor (rbGR) (Oryctolagus cuniculus, UniProt P59667); assay: Glucocorticoid receptor binding / anti-glucocorticoid receptor activity; parameters: species or system rabbit
T1 construct: cytosol containing PR or GR were prepared in TEGMD buffer; from tissue; host or cells: thymus of estradiol-primed immature rabbits (cytosol)
T1 sequence (P59667 1-772): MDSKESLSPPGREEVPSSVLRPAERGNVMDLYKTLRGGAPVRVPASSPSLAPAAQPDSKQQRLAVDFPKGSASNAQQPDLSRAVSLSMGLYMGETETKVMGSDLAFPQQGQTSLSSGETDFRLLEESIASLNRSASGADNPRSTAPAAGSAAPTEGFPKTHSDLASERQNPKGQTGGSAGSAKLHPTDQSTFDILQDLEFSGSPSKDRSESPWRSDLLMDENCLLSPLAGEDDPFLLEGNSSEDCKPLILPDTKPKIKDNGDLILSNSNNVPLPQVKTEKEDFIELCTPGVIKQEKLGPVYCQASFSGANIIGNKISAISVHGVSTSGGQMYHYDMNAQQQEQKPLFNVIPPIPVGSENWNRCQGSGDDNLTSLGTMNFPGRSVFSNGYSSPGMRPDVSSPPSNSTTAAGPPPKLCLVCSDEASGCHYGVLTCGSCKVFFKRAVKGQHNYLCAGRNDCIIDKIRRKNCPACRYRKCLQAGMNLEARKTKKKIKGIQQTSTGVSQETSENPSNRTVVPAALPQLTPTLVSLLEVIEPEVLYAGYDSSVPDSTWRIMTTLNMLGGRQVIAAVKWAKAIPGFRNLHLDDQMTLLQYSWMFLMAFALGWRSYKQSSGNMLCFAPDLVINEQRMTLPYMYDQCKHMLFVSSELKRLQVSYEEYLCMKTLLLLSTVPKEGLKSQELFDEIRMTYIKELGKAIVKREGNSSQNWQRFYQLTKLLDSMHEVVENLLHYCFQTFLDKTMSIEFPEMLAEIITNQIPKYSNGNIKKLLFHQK
Experimental: Certain antiprogestins were tested in receptor-binding assays for their ability to bind rabbit progesterone receptor (rbPR) and glucocorticoid receptor (rbGR). […] For PR binding, the cytosol was incubated with 6 nM 1,2-[^3H]progesterone (50.0 Ci/mmole) and competitors were added at concentrations from 2 to 100 nM. For binding to GR, the cytosol was incubated with 6 nM 6,7-[^3H]-dexamethasone (40 Ci/mmol) and test compounds were added at concentrations from 20 to 100 nM. After overnight incubation at 4 C, bound and unbound [^3H] steroids were separated by addition of dextran-coated charcoal and centrifugation at 2100×g for 15 min at 4 C. Supernatants containing the [3H]-steroid receptor complexes were decanted into vials containing 4 ml Optifluor (Packard Instrument Co.), vortexed, equilibrated in a liquid scintillation counter for 30 minutes and then counted for 2 minutes. […] The standards for the PR and GR assays were unlabeled progesterone and dexamethasone, respectively.

[3] = Estrogenic, androgenic, anti-estrogenic and anti-androgenic activities
[4] = test system: progesterone-induced endometrial glandular proliferation in rabbit uterus; assay: anti-McGinty and anti-Clauberg assays in the rabbit uterus; format: in vivo; details: for rabbit Biol. Act.: average of anti-McGinty and anti-Clauberg results relative to CDB-2914 (=1.00)
Description: Also given in Table 1 are the relative biological activities of the same compounds in the rabbit uterus by the anti-McGinty and anti-Clauberg assays. Compound CDB-2914 (listed at the end of the Table) was used as the control or reference compound (rabbit Biological Activity=1.00) for these experiments because results of experiments using CDB-2914 have been published before (Hild-Petito et al., 1996; Passaro et al., 1997; Reel et al., 1998; Lamer et al., 2000). For the anti-McGinty test, immature female rabbits received a subcutaneous injection of 5 μg estradiol in 10% ethanol/sesame oil daily for 6 consecutive days. On day 7, animals underwent sterile abdominal surgery to ligate a 3-4 cm segment of both uterine horns. The test compound in appropriate solvent was injected intraluminally into the ligated segment of one uterine horn and vehicle alone into the other. A stimulating dose of progesterone (267 μg/day) was administered subcutaneously to each rabbit daily for the next three days to induce endometrial proliferation. All animals were sacrificed at day 10 for removal of the uterus where a segment central to the ligatures was removed and fixed in 10% neutral buffered formalin and submitted for histological processing. Five micron sections stained with hematoxylin and cosin were evaluated microscopically for the degree of endometrial glandular proliferation. The percent inhibition of endometrial proliferation for each rabbit was calculated and the mean of the group of five animals recorded. For the Anti-Clauberg test, immature female rabbits received a subcutaneous injection of 5 μg estradiol in 10% ethanol/sesame oil daily for 6 consecutive days. On day 7, animals received progesterone by subcutaneous injection (160 μg/day) and the experimental compound in appropriate vehicle orally or subcutaneously for five consecutive days. One group of rabbits received progesterone only. Twenty-four hours after the last dose, all animals were sacrificed for removal of the uterus which was cleaned of all fat and connective tissue, weighed to the nearest 0.2 mg and placed in 10% neutral buffered formalin for subsequent histological processing. Five micron sections stained with hematoxylin and eosin were evaluated microscopically for the degree of endometrial glandular proliferation. The percent inhibition of endometrial proliferation at each dose level of the test compound was derived by comparison with progesterone-stimulated animals alone. The data presented in Table 1 (rabbit Biol. Act.) reflects the average of the results obtained for each compound by the anti-McGinty and anti-Clauberg assays relative to CDB-2914.

[5] = test system: rabbit progesterone receptor (rbPR) and glucocorticoid receptor (rbGR); assay: Receptor-binding assays, ratio of relative binding affinities rbPR/rbGR; details: ratio of relative binding affinities (RBA = EC50 of standard/EC50 of test compound x 100) for rbPR and rbGR
Experimental: Certain antiprogestins were tested in receptor-binding assays for their ability to bind rabbit progesterone receptor (rbPR) and glucocorticoid receptor (rbGR). Briefly, cytosol containing PR or GR were prepared in TEGMD buffer (10 mM Tris, pH 7.2, 1.5 mM EDTA, 0.2 mM sodium molybdate, 10% glycerol, 1 mM DTT) from uterus or thymus, respectively, of estradiol-primed immature rabbits. For PR binding, the cytosol was incubated with 6 nM 1,2-[^3H]progesterone (50.0 Ci/mmole) and competitors were added at concentrations from 2 to 100 nM. For binding to GR, the cytosol was incubated with 6 nM 6,7-[^3H]-dexamethasone (40 Ci/mmol) and test compounds were added at concentrations from 20 to 100 nM. After overnight incubation at 4 C, bound and unbound [^3H] steroids were separated by addition of dextran-coated charcoal and centrifugation at 2100×g for 15 min at 4 C. Supernatants containing the [3H]-steroid receptor complexes were decanted into vials containing 4 ml Optifluor (Packard Instrument Co.), vortexed, equilibrated in a liquid scintillation counter for 30 minutes and then counted for 2 minutes. The EC50 (Effective Concentration) for each standard curve and each of the compound curves was determined by entering the counting data into a four parameter sigmoidal computer program (RiaSmart® Immunoassay Data Reduction Program, Packard Instrument Co., Meriden, Conn.). Relative binding affinity (RBA) for each compound was calculated using the following equation: EC50 of standard/EC50 of test compound×100. The standards for the PR and GR assays were unlabeled progesterone and dexamethasone, respectively. The results of these experiments are summarized in Table 1, as a ratio of the relative binding affinities of each compound for the rbPR and rbGR receptors (rbPR/rbGR).

[6] = Serum corticosterone in rats; details: for differences in serum corticosterone between groups: CDB-4124 10 or 20 mg/kg, RU 486 10 mg/kg, progesterone 10 mg/kg
[7] = Urinary estrogen levels (follicular phase) in cynomolgus monkeys; format: in vivo, Cynomolgus monkeys (Macaca fascicularis); parameters: Urinary estrogen, follicular phase, Mean: unit not given here; details: for Urinary estrogen, follicular phase, Mean: CDB-4124 or RU-486 oral 1.0 mg/kg/day, Lupron IM once per month
Experimental: Cynomolgus monkeys (Macaca fascicularis) (n=14) were treated orally for 36 weeks with CDB-4124 or RU-486 at 1.0 mg/kg/day or with placebo (control). Another group (n=14) received Lupron® IM once per month. Urinary progesterone levels were measured for each animal for one month during the middle of the study (weeks 14-17) and for the last month of the study (weeks 33-36). The results are presented below:
Urinary estrogen levels were measured for each animal of Example 6 for one month during the middle of the study (weeks 14-17) and for the last month of the study (weeks 33-36). The follicular phase results are based on 35 baseline ovulating cycles.

[8] = test system: Cynomolgus monkey endometrial epithelia, uterus stroma and breast; assay: BrdU incorporation, tissue proliferation in cynomolgus monkeys; format: in vivo, Cynomolgus monkeys (Macaca fascicularis); details: week 36, % cells positive for incorporation of BrdU, three animals per group
Experimental: At week 36, three animals from each group of Example 6 were injected within 24 hours of sacrifice with the thymidine analog bromodeoxyuridine (BrdU), a marker of proliferating cells and their progeny, to assess tissue proliferation. Full thickness uterine sections were stained and examined microscopically for evidence of proliferation in terms of the % cells positive for incorporation of BrdU: […]

[9] = Urinary progesterone levels (luteal phase) in cynomolgus monkeys; format: in vivo, Cynomolgus monkeys (Macaca fascicularis); details: n=14 per group; CDB-4124 or RU-486 oral 1.0 mg/kg/day for 36 weeks; Lupron IM once per month
Experimental: Cynomolgus monkeys (Macaca fascicularis) (n=14) were treated orally for 36 weeks with CDB-4124 or RU-486 at 1.0 mg/kg/day or with placebo (control). Another group (n=14) received Lupron® IM once per month. Urinary progesterone levels were measured for each animal for one month during the middle of the study (weeks 14-17) and for the last month of the study (weeks 33-36).

[10] = test system: Cynomolgus monkey endometrial epithelium, uterus stroma and breast; assay: TUNEL apoptosis in cynomolgus monkey tissue; format: in vivo, Cynomolgus monkeys (Macaca fascicularis); details: week 36, percent apoptotic cells
Experimental: Apoptosis was assessed in tissue from the same animals on slides by the terminal deoxynucleotidyl transferase mediated dUTP-biotin nick end labeling (TUNEL) technique.

In the case of CC(=O)OCC(=O)[C@@]1(OC(C)=O)CCC2C3CCC4=CC(=O)CCC4=C3C(c3ccc(N(C)C)cc3)C[C@@]21C (stereo partly drawn) [CDB-4059, 21-acetoxy-17α-acetoxy-11β-(4 N,N-dimethylaminophenyl)-19-norpregna-4,9-diene-3,20-dione], the “levels of serum cortisol versus control group” value [1] is reported as “significantly higher”, the “anti-glucocorticoid receptor activity / glucocorticoid receptor binding” value [2] is reported as “minimal anti-glucocorticoid receptor activity” and the “estrogenic, androgenic, anti-estrogenic, and anti-androgenic activities” value [3] is reported as “lack estrogenic, androgenic, anti-estrogenic, and anti-androgenic activities”. The “rabbit Biol. Act.” value [4] was 2.90, the “antiprogestin activity in the rabbit uterus” value ([4]; in comparison to RU 486 and CDB-2914) was “strong antiprogestin activity” and the rbPR/rbGR [5] was 1.89.

For CC#C[C@]1(O)CC[C@H]2[C@@H]3CCC4=CC(=O)CCC4=C3[C@@H](c3ccc(N(C)C)cc3)C[C@@]21C [RU 486, 11β-[p-(Dimethylamino)phenyl]-17β-hydroxy-17-(1-propynyl)estra-4,9-dien-3-one], the “levels of serum cortisol versus control group” value [1] was “no significant difference”, the “differences in serum corticosterone between groups” value [6] was “No differences” and the “Follicular phase estrogen Lower?” value ([7]; Week 18) was “No”. The “Urinary estrogen, follicular phase, Mean” value ([7]; Week 18) was 67.4, the “Follicular phase estrogen Lower?” value ([7]; Week 36) was “No” and the “Urinary estrogen, follicular phase, Mean” value ([7]; Week 36) was 64.8. For the same molecule, the “Breast Brdu-%” value [8] was 0.9 ± 0.3%, the “Uterus epithelium Brdu-%” value [8] was 12.6 ± 1.8% and the “Uterus stroma Brdu-%” value [8] was 3.1 ± 1.0%. For the same molecule, the “Decrease in luteal phase progesterone (number of animals)” value [9] was 9, the “No decrease in luteal phase progesterone (number of animals)” value [9] was 5 and the “anti-glucocorticoid receptor activity / glucocorticoid receptor binding” value [2] was “moderately active”. For the same molecule, the “Breast Apo %” value [10] was 1.2 ± 0.6%, the “Uterus epithelium Apo %” value [10] was 0.5 ± 0.1% and the “Uterus stroma Apo %” value [10] was 0.5 ± 0.1%.

For CC(=O)O[C@]1(C(C)=O)CC[C@H]2[C@@H]3CCC4=CC(=O)CCC4=C3[C@@H](c3ccc(N(C)C)cc3)C[C@@]21C [CDB-2914, 17α-acetoxy-11β-(4-N,N-dimethylaminophenyl)-19-norpregna-4,9-dien-3,20-dione, reference compound], the “anti-glucocorticoid receptor activity / glucocorticoid receptor binding” value [2] was “moderately active”, the “rabbit Biol. Act.” value [4] was 1.00 and the rbPR/rbGR [5] was 1.07.

For CC(=O)[C@H]1CC[C@H]2[C@@H]3CCC4=CC(=O)CC[C@]4(C)[C@H]3CC[C@]12C [progesterone], the “differences in serum corticosterone between groups” value [6] was “No differences” and the “levels of corticosterone in animals treated with exogenous progesterone” value ([6]; after 21 days of treatment, p=0.029, not verified at sacrifice) was “lowered”.
